Entries after “also recorded” stand apart in the source; their conditions may differ.
Assays:
Bax = Bax conformational activation (IP with 6A7 antibody, Western blot); assay type: cell-based, Human; details: co-treatment with LY2119301 and ADR, etoposide or 5-FU, 24 h
Description: (§1) Western blotting, immunoprecipitation and microarray analysis: Cells were scraped, collected and lysed as described previously (Yu, Q., et al. Cancer Res, 62: 5743-5748, 2002). Briefly, cells were lysed with cell lysis buffer (0.3% NP40, 1 mM EDTA, 50 mM Tris-HCl (pH 7.4), 2 mM EGTA, 1% Triton X-100, […], 25 mM NaF, 1 mM Na3VO4, 2 mM AEBSF, 5 μg/ml aprotinin, 1 μg/ml leupeptin) for 30 minutes on ice, and the lysates were clarified by centrifugation at 12,000×g for 15 minutes at 4° C. Protein concentration was quantified (Bio-Rad, Hercules, Calif.) and protein samples (50 μg) were separated by SDS/PAGE and transferred onto Immobilon™ membranes (Millipore, Bedford, Mass.). Antibodies against the following proteins were used: p53 (DO-1), p21, PARP, GSK-α/β, α-Tubulin, and β-actin (Santa Cruz Biotechnology), Puma (Ab-1, Oncogene), Bax (Sigma), phosphor-(Ser9/21)-GSK-3α/β and Caspase-9 (Cell Signaling Technologies), phosphor-(Tyr216/279)-GSK-3α/β (Upstate Biotechnologies), cytochrome c (BD PharMingen). To detect Bax conformational change, cells were lysed in 1% Chaps buffer and the soluble fraction was immunoprecipitated with anti-Bax monoclonal antibody (6A7, BD, PharMingen), followed by immunoblotting with anti-Bax polyclonal antibody. Microarray analysis was performed as described (Kho, P. S., et al. J Biol Chem, 279: 21183-21192, 2004).

GSK-3α = target: T1, GSK-3α (Homo sapiens, UniProt P49840); experiment: Immunoblot analysis of GSK-3 phosphorylation status in HCT116 cells; assay type: cell-based
T1 construct: endogenous in cells; host or cells: HCT116
Description: (§2) Protein concentration was quantified (Bio-Rad, Hercules, Calif.) and protein samples (50 μg) were separated by SDS/PAGE and transferred onto Immobilon™ membranes (Millipore, Bedford, Mass.). […] To detect Bax conformational change, cells were lysed in 1% Chaps buffer and the soluble fraction was immunoprecipitated with anti-Bax monoclonal antibody (6A7, BD, PharMingen), followed by immunoblotting with anti-Bax polyclonal antibody.
(§3) Subcellular fractionation: Cells were lysed in mitochondria lysis buffer (210 mM Mannitol, 70 mM Sucrose, 10 mM Hepes (pH, 7.4), 1 mM EDTA, protease inhibitor cocktail) with a Dounce homogenizer and subjected to centrifugation at 1000×g to pellet the nuclei. Post-nuclear supernatant was centrifuged at 10,000×g to pellet the mitochondria-enriched heavy membrane fraction, and the resulting supernatant was further centrifuged to obtain cytosolic fraction. Total proteins (30 μg) from cytosolic or mitochondrial fractions were subjected to immunoblot analysis.

GSK-3β = target: T2, GSK-3β (Homo sapiens, UniProt P49841); experiment: as above; assay type: cell-based
T2 construct: endogenous in cells; host or cells: HCT116
Description: as §2, §3

HCT116 cells (Bax+/+) = experiment: Mitochondrial membrane potential by JC-1 staining and FACS; assay type: cell-based, Human; details: co-treated with LY2119301 and genotoxic treatments
Description: (§4) Measurement of mitochondrial permeability transition: Cells were harvested by centrifugation at 300×g at 4° C. for 5 min. Mitochondrial permeability transition was determined by staining the cells with JC-1 (BD PharMingen) according to the manufacturer's instructions. Mitochondrial permeability transition was quantified by flow cytometric determination of cells with decreased red fluorescence, i.e. with mitochondria displaying a lower membrane potential (ΔΨm). Data are given in percentage of cells with low ΔΨm.

HCT116 Bax −/− cells = experiment: as above; assay type: cell-based, Human; details: co-treated with LY2119301 and genotoxic treatments
Description: as §4

[1] = test system: p53 and p53 targets in HCT116 cells; experiment: Immunoblot analyses of p53 and p53 targets; assay type: cell-based, Human
Description: as §1

HCT116 p53 −/− cells = experiment: FACS analysis of DNA content (sub-G1 apoptotic fraction); assay type: cell-based, Human
Description: (§5) Cell culture and drug treatments: Human colon cancer cell line HCT116 and its derived isogenic p53^−/−, Puma^−/−, Bax^−/− and p53-inducible DLD cell lines were kindly provided by Dr. Bert Vogelstein (Johns Hopkins University, MD). RKO and RKO/E6 cells were from ATCC. Cells were cultured in DMEM containing 10% FBS. All culture reagents and media were from Invitrogen. 5-Fluorouracil, Adriamycin, etoposide and lithium chloride were purchased from Sigma. GSK-3β specific small molecule inhibitor LY2119301 was a gift from Eli Lilly (Indianapolis) and SB-216763, SB-415283 were obtained from BIOMOL.
(§6) FACS analysis of DNA content and caspase-3 activity: Cells were harvested and fixed in 70% ethanol. Fixed cells were stained with propidium iodide (50 μg/ml) after treatment with RNase (100 μg/ml). The stained cells were analyzed for DNA content by fluorescence-activated cell sorting (FACS) in a FACScalibur™ (Becton Dickinson Instrument, San Jose, Calif.). Cell cycle fractions were quantified using the CellQues™ software (Becton Dickinson). To measure caspase-3 activity, cells were fixed with Cytofix/Cytoperm™ solution (BD PharMingen) as instructed, and then stained with FITC-conjugated rabbit anti-active caspase-3 monoclonal antibody (BD PharMingen). Quantification of cells positive for the caspase-3 detection was performed by flow cytometry.

HCT116 cells = experiment: as above; assay type: cell-based, Human
Description: as §5, §6

[2] = test system: p53-responsive genes in HCT116; experiment: Microarray analysis of p53-responsive genes; assay type: cell-based, Human; details: concurrent treatment with ADR and LY2119301
Description: as §1

[3] = nuclear and cytoplasmic fractions
[4] = with ADR, etoposide or 5-FU, HCT116 (LY2119301 also RKO)

T2 sequence (P49841 whole entry): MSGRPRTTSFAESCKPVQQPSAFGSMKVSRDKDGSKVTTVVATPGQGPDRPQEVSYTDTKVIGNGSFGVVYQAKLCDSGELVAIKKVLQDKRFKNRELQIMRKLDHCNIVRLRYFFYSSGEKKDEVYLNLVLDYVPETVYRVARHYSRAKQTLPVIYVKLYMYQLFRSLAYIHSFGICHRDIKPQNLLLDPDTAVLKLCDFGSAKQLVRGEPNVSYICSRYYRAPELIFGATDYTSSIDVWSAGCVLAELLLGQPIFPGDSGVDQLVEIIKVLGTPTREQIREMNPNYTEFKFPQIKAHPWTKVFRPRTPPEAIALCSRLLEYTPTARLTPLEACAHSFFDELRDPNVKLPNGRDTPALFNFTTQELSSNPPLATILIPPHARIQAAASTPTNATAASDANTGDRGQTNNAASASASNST
T1 sequence (P49840 whole entry): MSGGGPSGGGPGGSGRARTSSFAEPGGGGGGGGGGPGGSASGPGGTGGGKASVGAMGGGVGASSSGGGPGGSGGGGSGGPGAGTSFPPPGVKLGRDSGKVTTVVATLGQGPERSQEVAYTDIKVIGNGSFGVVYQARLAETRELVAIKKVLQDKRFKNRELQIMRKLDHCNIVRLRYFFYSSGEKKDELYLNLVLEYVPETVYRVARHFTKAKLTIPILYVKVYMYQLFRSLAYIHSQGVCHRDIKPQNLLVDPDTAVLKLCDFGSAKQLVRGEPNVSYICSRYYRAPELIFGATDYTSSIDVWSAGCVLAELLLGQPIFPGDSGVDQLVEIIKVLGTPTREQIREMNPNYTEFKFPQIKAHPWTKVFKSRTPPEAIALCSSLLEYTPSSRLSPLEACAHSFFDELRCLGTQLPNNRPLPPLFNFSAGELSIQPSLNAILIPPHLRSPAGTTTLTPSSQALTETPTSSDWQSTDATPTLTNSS

Structure (SMILES): CN1CCN(c2ccc(NCCNc3ccc([N+](=O)[O-])c(N)n3)nc2-c2ccc(Cl)cc2Cl)C(=O)C1 [LY2119301]
- levels of conformationally active Bax (Bax): dramatically increased
- activating tyrosine phosphorylation on GSK-3α (GSK-3α; HCT116 whole lysate immunoblot): almost completely blocked
- inhibitory serine 21 phosphorylation on GSK-3α (GSK-3α; HCT116 whole lysate immunoblot): much lesser extent
- tyrosine phosphorylation of GSK-3α (GSK-3α; [3]): blocked
- activating tyrosine phosphorylation on GSK-3β (GSK-3β; HCT116 whole lysate immunoblot): almost completely blocked
- inhibitory serine 9 phosphorylation on GSK-3β (GSK-3β; HCT116 whole lysate immunoblot): increase
- tyrosine phosphorylation of GSK-3β (GSK-3β; [3]): blocked
- serine phosphorylation on GSK-3β in cytoplasm and nucleus (GSK-3β; nuclear and cytoplasmic fractions, with or without DNA damage): triggered
- mitochondrial membrane potential (HCT116 cells (Bax+/+)): significant reduction
- reduction of mitochondrial membrane potential (HCT116 Bax −/− cells): not
- Bax levels ([1]; HCT116 and RKO): no effect
- cleavage of PARP ([1]; cells treated with genotoxic agents): remarkably increased
- p53-mediated p21 induction [1, 4]: prevents; also recorded: impaired
- p53 accumulation / stability in response to DNA damage [1, 4]: prevents; also recorded: markedly and consistently impaired
- induction of Puma ([1]; with chemotherapeutic agents, HCT116 and RKO): impaired
- 5-FU-induced apoptosis (HCT116 p53 −/− cells; 5-FU in presence of LY2119301, cells null for p53): no increased apoptosis
- synergistic induction of cell death (HCT116 p53 −/− cells; ADR and LY2119301 co-treatment, 24 h, p53 knockout): not seen
- 5-FU-induced apoptosis (HCT116 cells; 5-FU in presence of LY2119301): greatly sensitized
- apoptosis in response to other DNA damaging agents (HCT116 cells; LY2119301 with etoposide (10 μM) or camptothecin (100 nM), 24 h): triggered p53-dependent apoptosis; also recorded: robust apoptosis
- cell death, sub-G1 population (HCT116 cells; co-treatment ADR (1 μM) and LY2119301 (5 μM), 24 h): ~59%
- increase in apoptosis induction by 5-FU (HCT116 cells; dose-effect experiments, 5-FU in presence of LY2119301): 10 fold
- concentration able to induce apoptosis in ADR-treated cells (as low as) (HCT116 cells; with ADR): 250 nM
- induction of p53 responsive genes [2]: uniformly attenuated

Reference: patent US20110293746A1, “Modulation of Gsk-3Beta and Method of Treating Proliferative Disorders” (Agency For Science, Technology and Research, priority 2004, published 2011)
